Measurements from US10426162B2, “Interaction between antimicrobial quaternary compounds and anionic surfactants” (Ecolab USA Inc., priority 2016, dated 2019).

Legend:
Staphylococcus = test: Antimicrobial suspension test of quat-anionic surfactant compositions (Examples 6, 8); type: cell-based, Staphylococcus aureus; conditions: for antimicrobial efficacy against Staphylococcus: FIG. 6A; for kill properties on Staphylococcus: 300, 150 and 75 ppm active Bardac […] + anionic surfactant, 7.5:1 mass ratio, pH 8, FIG. 8
bacteria = test: Antimicrobial efficacy at pH 8.0, 7.5 to 1 mass ratio (FIG. 6B); type: cell-based; conditions: 7.5/1 mass ratio; for log reduction of bacteria: 300 ppm Bardac […] + anionic surfactant; for antimicrobial efficacy: 150 ppm Bardac […] + anionic surfactant
Method: Further examination of the antimicrobial efficacy of a quaternary ammonium compound in association with an anionic surfactant at pH 8.0 was performed as described above.

Escherichia coli = test: Antimicrobial suspension test of quat-anionic surfactant compositions (Examples 6-7); type: cell-based; conditions: for antimicrobial efficacy against E. coli (log reduction of bacteria): 300 ppm Bardac […] + anionic surfactant, mole:mole ratio, pH 8, FIG. 7; for log reduction of bacteria for E. coli: 300 ppm active Bardac […] + anionic surfactant, 7.5/1 mass ratio, FIG. 6A
[1] = Dynamic surface tension (SITA science line t60 bubble pressure); conditions: for dynamic surface tension: 100 ppm Bardac […] + sulfate based anionic surfactant at mole:mole ratio, FIGS. 4A-4C
Method: The SITA science line t60 measures the dynamic surface tension of liquids up to the semi-static range. Air bubbles are generated from a capillary with known radius. The bubble pressure is measured as a function of bubble life time, which can be correlated to the surface tension according to the Young-Laplace equation.
The SITA science line t60 was calibrated with DI water. Clean water samples after calibration should have a surface tension of 72.0 ±1.0 mN/m (depending on the quality and temperature). Following calibration, the SITA was programmed to take readings at the desired time intervals (i.e., 0.3, 1.6, 3.0, 9.1 seconds). In order to determine the effects on the surface activity of a 9:1 mass ratio of quaternary ammonium compound with an anionic surfactant the following compositions were prepared.
10-15 mL were transferred into 20 mL vials and immersed in a heated oil bath to 72° C. (160° F.)±2° C. The samples were equilibrated for 10-15 minutes. The samples were individually removed from the oil bath and tested in the SITA. After each sample was tested the SITA's cleaning procedure was run, then the surface tension of DI water was checked to ensure the SITA was adequately clean. If the DI water measurements were not within 72.0±1.0 mN/m, then the cleaning procedure was run again.
The SITA science line t60 was calibrated with DI water. Clean water samples after calibration should have a surface tension of 72.0±1.0 mN/m (depending on the quality and temperature). Following calibration, the SITA was programmed to take readings at the desired time intervals (i.e., 0.3, 1.6, 3.0, 9.1 seconds). In order to determine the effects on the dynamic surface tension of Bardac LF80 and varying concentrations of Acusol 445 the following five solutions were analyzed at pH 7.0; 100 ppm Bardac LF80; 10 ppm Acusol 445; 100 ppm Bardac LF80+10 ppm Acusol 445; 100 ppm Bardac LF80+30 ppm Acusol 445; and 100 ppm Bardac LF80+75 ppm Acusol 445.

E. coli = test: Third sink sanitizer (Example 12); type: cell-based, Escherichia coli; conditions: 500 ppm water hardness, neutral pH versus pH 4.5
Method: The antimicrobial efficacy of quaternary ammonium compounds and anionic surfactants for use as a third sink sanitizer were evaluated as shown in Table 10.

[2] = 300 ppm Bardac […] + anionic surfactant, mole:mole ratio
[3] = Bardac […] + anionic sulfate surfactant at mole:mole ratio, FIG. 2
[4] = 100 ppm Bardac […] + anionic carboxylate surfactant at mole:mole ratio, FIG. 3A
[5] = 300 ppm active Bardac […] + anionic surfactant, 7.5/1 mass ratio

CCCCCCCCS(=O)(=O)[O-].[Na+] [NAS-FAL, sodium n-octanesulfonate]
antimicrobial efficacy against Staphylococcus (Staphylococcus; [2]): good antimicrobial efficacy against Staphylococcus
log reduction of bacteria (bacteria): highest log reduction of bacteria
antimicrobial efficacy against E. coli (log reduction of bacteria) (Escherichia coli): reduce the antimicrobial activity of the quaternary ammonium compound
dynamic surface tension [1]: synergistic trend in regards to reduced surface tension
dynamic surface activity (surface tension versus bubble life time) [1, 3]: rapid increase in surface activity

CC(C(=O)[O-])N(CC(=O)[O-])CC(=O)[O-].[Na+].[Na+].[Na+] (centres unmarked) [Trilon M, methyl glycine diacetic acid (MGDA)]
dynamic surface activity, effect of pH ([1]; 100 ppm Bardac LF80 + 100 ppm Trilon M at pH 3.0, 9.0, 11.0, FIG. 21): independent of pH

CCCCCCCCCC(=O)O [decanoic acid]
kill properties on Staphylococcus (Staphylococcus): excellent kill properties on Staphylococcus
antimicrobial efficacy (bacteria): good antimicrobial efficacy
log reduction of bacteria (bacteria): highest log reduction of bacteria
antimicrobial efficacy against E. coli (log reduction of bacteria) (Escherichia coli): reduce the antimicrobial activity of the quaternary ammonium compound
effect on the antimicrobial efficacy of the quat (E. coli): “synergizes” the quat
effect on the antimicrobial efficacy of the quat (E. coli; listed as decanoate): “deactivates” quat
dynamic surface tension, effect of pH ([1]; 100 ppm Bardac […] + 56 ppm decanoic acid mole:mole, pH 3.6-10.2, FIG. 5B): independent of pH
dynamic surface activity (surface tension versus bubble life time) ([1]; 100 ppm Bardac […] alone, 100 ppm Decanoate alone, or 100 ppm Bardac […] + 10-70 ppm Decanoic acid, FIG. 3B): limited surface activity

CCCCC(CC)C(=O)O (centres unmarked) [ethylhexoic acid]
kill properties on Staphylococcus (Staphylococcus): excellent kill properties on Staphylococcus
antimicrobial efficacy (bacteria): good antimicrobial efficacy
log reduction of bacteria (bacteria): highest log reduction of bacteria
antimicrobial efficacy against E. coli (log reduction of bacteria) (Escherichia coli): highest log reduction of bacteria
dynamic surface activity (surface tension versus bubble life time) [1, 4]: capable of increasing the surface activity, to variable extents, compared to Bardac 205M alone

CCCCCCCCCCCC(=O)O [lauric acid]
dynamic surface activity (surface tension versus bubble life time) [1, 4]: capable of increasing the surface activity, to variable extents, compared to Bardac 205M alone

CCCCCCCCCCCCOS(=O)(=O)[O-].[Na+] [SLS, sodium lauryl sulfate]
antimicrobial efficacy against Staphylococcus (Staphylococcus; [5]): good antimicrobial efficacy against Staphylococcus
log reduction of bacteria (bacteria): highest log reduction of bacteria
antimicrobial efficacy against E. coli (log reduction of bacteria) (Escherichia coli): reduce the antimicrobial activity of the quaternary ammonium compound
log reduction of bacteria for E. coli (Escherichia coli): highest log reduction of bacteria for E. coli
dynamic surface tension [1]: reduced dynamic surface tension, as compared to either the quaternary ammonium compound or the anionic surfactant alone
dynamic surface activity (surface tension versus bubble life time) [1, 3]: overall increase in surface activity compared to Bardac 205M alone, but displayed slower dynamics

CCCCC(CC)COS(=O)(=O)[O-].[Na+] (centres unmarked) [EH-S, Sodium 2-ethyl hexyl sulfate]
kill properties on Staphylococcus (Staphylococcus): excellent kill properties on Staphylococcus
antimicrobial efficacy against Staphylococcus (Staphylococcus; [2]): good antimicrobial efficacy against Staphylococcus
log reduction of bacteria (bacteria): highest log reduction of bacteria
antimicrobial efficacy against E. coli (log reduction of bacteria) (Escherichia coli): reduce the antimicrobial activity of the quaternary ammonium compound
log reduction of bacteria for E. coli (Escherichia coli): highest log reduction of bacteria for E. coli
dynamic surface tension [1]: synergistic reduction of surface tension
dynamic surface activity (surface tension versus bubble life time) [1, 3]: rapid increase in surface activity

CC(O)(P(=O)(O)O)P(=O)(O)O [HEDP, 1-hydroxy ethylidene-1,1-diphosphonic acid]
dynamic surface activity ([1]; 100 ppm Bardac LF80 + 10-75 ppm HEDP, pH 7.0, FIG. 18): increase in dynamic surface activity of Bardac LF80 in combination with HEDP

CCCCCCCC(=O)O [octanoic acid]
kill properties on Staphylococcus (Staphylococcus): excellent kill properties on Staphylococcus
antimicrobial efficacy (bacteria): good antimicrobial efficacy
log reduction of bacteria (bacteria): highest log reduction of bacteria
antimicrobial efficacy against E. coli (log reduction of bacteria) (Escherichia coli): highest log reduction of bacteria
dynamic surface activity (surface tension versus bubble life time) [1, 4]: capable of increasing the surface activity, to variable extents, compared to Bardac 205M alone

CCCCCCCC/C=C\CCCCCCCC(=O)O [Oleic acid]
dynamic surface activity (surface tension versus bubble life time) [1, 4]: capable of increasing the surface activity, to variable extents, compared to Bardac 205M alone

sodium lauryl ether sulfate [SLES]
antimicrobial efficacy against Staphylococcus (Staphylococcus; [5]): good antimicrobial efficacy against Staphylococcus
antimicrobial efficacy (bacteria): good antimicrobial efficacy
log reduction of bacteria (bacteria): highest log reduction of bacteria
antimicrobial efficacy against E. coli (log reduction of bacteria) (Escherichia coli): reduce the antimicrobial activity of the quaternary ammonium compound
log reduction of bacteria for E. coli (Escherichia coli): highest log reduction of bacteria for E. coli
dynamic surface activity (surface tension versus bubble life time) ([1]; 100 ppm Bardac […] + surfactant at 9:1 mass ratio, 160° F., FIG. 1): do not display the synergistic boost in surface activity
dynamic surface activity (surface tension versus bubble life time) [1, 3]: overall increase in surface activity compared to Bardac 205M alone, but displayed slower dynamics
